Measured values taken from patent publication US20050170022A1, “Extracts of blueberries with anti-oxidant and anti-cancer properties” (priority 2001, published 2005).

Key:
[1] = test system: HL-60 cells; assay: Cytotoxicity in human leukemia cells (HL-60), tritiated thymidine uptake; assay type: cell-based; conditions: for IC50, inhibition of DNA synthesis (tritiated thymidine uptake): 90 minutes at 37 C
Experimental: The structure and identification of the seven isolated compounds was then determined using NMR. […] Verification after NMR was made by comparing mass spectra with the literature and by comparing the spectra with authentic compounds using thin layer chromatography. […] Using a well-established screening assay for cytotoxicity, the compounds were tested in a human leukemia cell line (HL-60) for their ability to inhibit growth of these cells in culture. This assay is routinely used by those of skill to determine the potential anti-carcinogenic activity of chemicals where anti-carcinogenic activity is correlated with growth inhibitory activity in HL-60 cells. Uptake of tritiated thymidine into cells, a measure of the level of DNA synthesis and thus cell growth, was determined in the cells both with and without the presence of each of the seven blueberry extract compounds.
HL-60 cells were cultivated in 1.62% RPMI 1640 medium supplemented with 10% fetal calf serum and 1% penicillin-streptomycin. The concentration of the cells in the medium was kept between 2 and 10×10^5 counts/ml. Cell concentrations were counted at the beginning of each experiment with a microscope. Cells were washed without antibiotics and collected by centrifugation. The cells were then diluted to 3×10^5 counts/ml with cold medium without antibiotics. Tritiated thymidine was mixed into the cold medium at a concentration of 150 Ci/mmol. The samples to be tested were dissolved in DMSO at concentrations between 0.1 g/L and 50 ug/L. A 2 microliter sample of each concentration was added to 6 ml tubes, using triplicate tubes for reproducibility. A 1 ml sample of the HL-60 cell culture was added to each tube, […]. The tubes were incubated at 37 C for 90 minutes and then cooled over ice. Cold PBS was added to each tube and they were centrifuged at 1000 rpm for 5 minutes. The supernatant was discarded and distilled water mixed with the cells. Free and bound tritiated thymidine levels were measured by scintillation counting.

[2] = Rancimat test, oxidative stability of lard; conditions: for Induction Time / Anti-oxidant Index: lard samples; for Anti-oxidant Index: lard negative control = 1.00
Experimental: The potential anti-oxidative properties of the seven compounds was also tested. Experiments were performed using the Rancimat method, a common method for measurement of anti-oxidant activity of both synthetic and natural anti-oxidants. The method is based on measuring changes in electrical conductivity of water caused by the formation of short-chain compounds when fats and oils are oxidized under elevated temperature and accelerated aeration. Using lard samples, the effects of each of the seven compounds on the oxidative stability of lard was determined. The anti-oxidative activity levels of the compounds isolated from blueberry are shown below in Table 1. The levels of anti-oxidant activity can be compared with a known anti-oxidant compound BHT.

[3] = test system: human colon (HCT-8) tumor cells; conditions: cited from earlier work

Compound	inhibition of DNA synthesis / cell growth in HL-60 cells (in words) [1]	IC50, inhibition of DNA synthesis (tritiated thymidine uptake) [1] [ppm]	Induction Time [2] [h]	Anti-oxidant Index [2]	oxidation-inhibition activity (in words) [2]	cytotoxicity (in words) [3]
C[C@@H]1CC[C@]2(C(=O)O)CC[C@]3(C)C(=CC[C@@H]4[C@@]5(C)CC[C@H](O)C(C)(C)[C@@H]5CC[C@]43C)[C@@H]2[C@]1(C)O [3β,19α-Dihydroxy-urs-12-en-28-oic Acid, 3β,19α-dihydroxy-urs-12-en-28-oic acid]	effectively inhibit DNA synthesis	1	2.2	1.05	–	–
O=Cc1ccc(CO)o1 [5-Hydroxymethyl-2-furfural, 5-hydroxymethyl-2-furfural]	–	–	2.1	1.00	–	–
Cc1cc(C(C)(C)C)c(O)c(C(C)(C)C)c1 [BHT, reference compound]	–	–	5.8	2.76	–	–
O=C(O)c1cc(O)c(O)c(O)c1 [Gallic Acid, gallic acid]	–	–	28.1	13.38	high oxidation-inhibition activity	–
O=C(O)c1ccc(O)c(O)c1 [Protocatechuic Acid, protocatechuic acid]	–	–	18.5	8.81	high oxidation-inhibition activity	–
CC[C@H](CC[C@@H](C)[C@H]1CC[C@H]2[C@@H]3CC=C4C[C@@H](O[C@@H]5O[C@H](CO)[C@@H](O)[C@H](O)[C@H]5O)CC[C@]4(C)[C@H]3CC[C@]12C)C(C)C [Sitosterol-β-D-glucoside, sitosterol-β-D-glucoside]	–	–	2.4	1.14	–	–
COc1cc(C(=O)O)cc(OC)c1O [Syringic Acid, syringic acid]	–	–	3.1	1.48	–	–
C[C@H]1[C@H](C)CC[C@]2(C(=O)O)CC[C@]3(C)C(=CC[C@@H]4[C@@]5(C)CC[C@H](O)C(C)(C)[C@@H]5CC[C@]43C)[C@H]12 [Urosolic Acid, urosolic acid]	effectively inhibit DNA synthesis	1.5	2.2	–	–	marginal cytotoxicity
